Each structure is given as a SMILES string.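 All cell lines were grown in 96-well plates and treated with compound for 48 hours. Definition used: TGI = concentration required for complete inhibition of growth.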 Bounds are passed on as bounds.

The values that follow come from PubChem BioAssay (NCI).

Test systems include UO-31 renal; MDA-N; NCI-H226 lung; HCC-2998 colon; SK-MEL-2 melanoma; CCRF-CEM leukemia; NCI-H460 lung; HL-60(TB) leukemia; BT-549 breast; SF-295 CNS.
Common to all, as to experiment: NCI tumour cell line growth inhibition, 48 h

With `COP(=O)(OC)C12CCOCCN1c1ccccc1C2=O` (stereo not drawn), the TGI in the assay with UO-31 renal, in the assay on MDA-N, in the assay with NCI-H226 lung, with HCC-2998 colon, in the assay on SK-MEL-2 melanoma and in the assay on CCRF-CEM leukemia was above 100 µM throughout. Besides, the TGI in the assay on NCI-H460 lung, in the assay on HL-60(TB) leukemia, in the assay on BT-549 breast and in the assay on SF-295 CNS was above 100 µM in each case.

For the compound `O=C1CC(Sc2nc3ccc(I)cc3c(=O)n2Cc2ccccc2)C(=O)NN1` (stereo not drawn), the TGI in the assay on UO-31 renal was found to be 1.97 µM; in the assay with MDA-N it was 33.4 µM; with NCI-H226 lung it was 25.2 µM; in the assay with HCC-2998 colon it was 31.8 µM; in the assay with SK-MEL-2 melanoma it was 31.8 µM; in the assay with CCRF-CEM leukemia it was 24.1 µM. Further, the TGI in the assay with NCI-H460 lung worked out at 57.2 µM; with HL-60(TB) leukemia, 38.4 µM; in the assay on BT-549 breast, 29.3 µM; in the assay on SF-295 CNS, 36.9 µM.

Take `Cc1cn2c(C)csc2c1P(=O)(OC(C)C)OC(C)C`: the TGI in the assay on UO-31 renal, in the assay with MDA-N, with HCC-2998 colon, in the assay with SK-MEL-2 melanoma, in the assay with CCRF-CEM leukemia and in the assay with NCI-H460 lung was above 100 µM in each case. Besides, the TGI in the assay with HL-60(TB) leukemia, in the assay on BT-549 breast and in the assay with SF-295 CNS was above 100 µM in each case.

In the case of `Cc1cc2nc(-c3cc(C(C)(C)C)c(O)c(C(C)(C)C)c3)[nH]c2cc1C`, the TGI in the assay with UO-31 renal is above 27.4 µM; with MDA-N it was above 44.5 µM; with NCI-H226 lung, above 100 µM; with HCC-2998 colon, above 100 µM; in the assay on SK-MEL-2 melanoma, above 100 µM; in the assay on CCRF-CEM leukemia it was 5.71 µM. Further, the TGI in the assay with NCI-H460 lung, with HL-60(TB) leukemia, with BT-549 breast and in the assay on SF-295 CNS was above 100 µM throughout.

Consider `COc1ccc(N=C2C(=S)N(c3ccc(OC)cc3)/C(=N/S(=O)(=O)c3ccccc3)N2c2ccccc2)cc1`, for which the TGI in the assay with UO-31 renal was 13.4 µM; in the assay on MDA-N, 8.81 µM; in the assay on NCI-H226 lung, 38.7 µM; with HCC-2998 colon, above 57.9 µM; in the assay on SK-MEL-2 melanoma, 25.5 µM; with CCRF-CEM leukemia, above 100 µM. For the same compound, the TGI is above 73.2 µM in the assay with NCI-H460 lung, above 100 µM with HL-60(TB) leukemia, 11.2 µM in the assay on BT-549 breast and above 49.5 µM in the assay on SF-295 CNS.

Turning to `Cc1cc2c(nn1)-c1ccccc1C2=O`, the TGI in the assay on UO-31 renal, with MDA-N, with NCI-H226 lung, in the assay with HCC-2998 colon, in the assay on SK-MEL-2 melanoma and with CCRF-CEM leukemia was above 10 µM throughout. The TGI in the assay with NCI-H460 lung, in the assay on HL-60(TB) leukemia, in the assay on BT-549 breast and in the assay with SF-295 CNS was above 10 µM throughout.

As to `NS(=O)(=O)c1ccc(NC(NC(=O)C(C(F)(F)F)C(F)(F)F)(C(F)(F)F)C(F)(F)F)cc1`, the TGI with UO-31 renal, in the assay with MDA-N, in the assay on NCI-H226 lung, in the assay on HCC-2998 colon, in the assay with SK-MEL-2 melanoma and with CCRF-CEM leukemia was above 100 µM each time. For the same compound, the TGI in the assay with NCI-H460 lung, in the assay on HL-60(TB) leukemia, in the assay on BT-549 breast and in the assay on SF-295 CNS was above 100 µM in each case.

In the case of `COC(=O)C1(Cc2ccc3c(c2)CCC3)Cc2cc3c(cc2C1)CCC3`, the TGI with UO-31 renal was above 100 µM; in the assay with MDA-N, above 100 µM; in the assay on NCI-H226 lung, above 100 µM; in the assay with HCC-2998 colon it was 57.5 µM; with SK-MEL-2 melanoma, 49.3 µM; with CCRF-CEM leukemia, 47.8 µM. Also, the TGI in the assay on NCI-H460 lung is above 100 µM; in the assay on HL-60(TB) leukemia it was 77.8 µM; in the assay on BT-549 breast, above 100 µM; with SF-295 CNS, above 100 µM.

Regarding `CCOC(=O)C1CN(C2CC2)CCC1=O` (stereo not drawn), the TGI in the assay with UO-31 renal, with MDA-N, with NCI-H226 lung, in the assay with HCC-2998 colon, in the assay on SK-MEL-2 melanoma and in the assay on CCRF-CEM leukemia was above 100 µM in each case. For the same compound, the TGI in the assay on NCI-H460 lung, in the assay on HL-60(TB) leukemia, in the assay with BT-549 breast and in the assay with SF-295 CNS was above 100 µM throughout.

As for `Cc1ccc(S(=O)(=O)NC(=O)NNc2ccc(F)cc2)cc1`, the TGI with UO-31 renal is above 31.6 µM; in the assay with MDA-N it was above 100 µM; in the assay with NCI-H226 lung, above 100 µM; with HCC-2998 colon, above 100 µM; in the assay with SK-MEL-2 melanoma, above 100 µM; in the assay on CCRF-CEM leukemia it was above 100 µM. Moreover, the TGI in the assay with NCI-H460 lung is above 100 µM; in the assay with HL-60(TB) leukemia it was above 100 µM; with BT-549 breast, above 31.6 µM; with SF-295 CNS, above 100 µM.

Take `COc1cc(C=C2C(=O)NC(=S)NC2=O)cc(OC)c1OC`: the TGI in the assay on UO-31 renal, in the assay with MDA-N, in the assay on NCI-H226 lung, with HCC-2998 colon, in the assay on SK-MEL-2 melanoma and with CCRF-CEM leukemia was above 100 µM throughout. Besides, the TGI in the assay on NCI-H460 lung, with HL-60(TB) leukemia, with BT-549 breast and with SF-295 CNS was above 100 µM in each case.

`COC(=O)C1=C(C)NC(C)=C([N+](=O)[O-])C1c1cccc(N=O)c1` (stereo not drawn): the TGI with UO-31 renal was 24.8 µM; in the assay on MDA-N, 21.6 µM; with NCI-H226 lung, 63.4 µM; with HCC-2998 colon it was 34.8 µM; with SK-MEL-2 melanoma it was 33.8 µM; in the assay on CCRF-CEM leukemia it was above 100 µM. Besides, the TGI is 31.1 µM in the assay on NCI-H460 lung, above 100 µM with HL-60(TB) leukemia, 30.7 µM with BT-549 breast and 51.5 µM in the assay on SF-295 CNS.

`O=c1n(Cc2ccccc2)c(=O)n2c(=O)n(Cc3ccccc3)c(=O)n12`: the TGI in the assay with UO-31 renal, in the assay with MDA-N, with NCI-H226 lung, with HCC-2998 colon, in the assay on CCRF-CEM leukemia and in the assay on NCI-H460 lung was above 100 µM each time. In addition, the TGI with HL-60(TB) leukemia, with BT-549 breast and in the assay on SF-295 CNS was above 100 µM throughout.
